Data as given in ChEMBL document CHEMBL5113392, “Novel hybrid pyrrolidinedione-thiazolidinones as potential anticancer agents: Synthesis and biological evaluation” (Eur J Med Chem, 2022).
Calls of active or inactive are those of the source. The calls are words filed in the database; no cut-off is given here.

How the values were obtained:
HL-60 = assay: Anticancer activity against human HL-60 cells assessed as lethality incubated for 48 hrs by SRB assay; type: functional; conditions: read-out: LC50 (the source's name)
T47D [1] = assay: Anticancer activity against human T47D cells assessed as growth inhibition incubated for 48 hrs by SRB assay; type: functional
DU-145 [2] = assay: Anticancer activity against human DU-145 cells assessed as growth inhibition incubated for 48 hrs by SRB assay; type: functional
[3] = Anticancer activity against human HCT116-p53-null cells assessed as cell growth inhibition incubated for 72 hrs by MTT assay; type: functional
UO-31 = assay: Anticancer activity against human UO-31 cells assessed as inhibition of cell growth at 10 uM incubated for 48 hrs by SRB assay; type: functional; conditions: UO-31, 48 h, values are per cent of control
[4] = Selectivity index, ratio of GI50 for human HaCaT cells to GI50 for human HCT-116 cells; type: toxicity; conditions: HaCaT cells versus HCT-116 cells, read-out: RatioGI50
RXF 393 = assay: Anticancer activity against human RXF 393 cells assessed as growth inhibition incubated for 48 hrs by SRB assay; type: functional
MDA-MB-435 = assay: Anticancer activity against human MDA-MB-435 cells assessed as lethality incubated for 48 hrs by SRB assay; type: functional; conditions: read-out: LC50 (the source's name)
CAKI-1 = assay: Anticancer activity against human CAKI-1 cells assessed as total growth inhibition incubated for 48 hrs by SRB assay; type: functional
SK-MEL-28 = assay: Anticancer activity against human SK-MEL-28 cells assessed as lethality incubated for 48 hrs by SRB assay; type: functional; conditions: read-out: LC50 (the source's name)
NCI-H460 [5] = assay: Anticancer activity against human NCI-H460 cells assessed as lethality incubated for 48 hrs by SRB assay; type: functional; conditions: read-out: LC50 (the source's name)
TK-10 [6] = assay: Anticancer activity against human TK-10 cells assessed as total growth inhibition incubated for 48 hrs by SRB assay; type: functional
HCT-116 = assay: Anticancer activity against human HCT-116 cells assessed as growth inhibition incubated for 48 hrs by SRB assay; type: functional
786-0 = assay: Anticancer activity against human 786-0 cells assessed as growth inhibition incubated for 48 hrs by SRB assay; type: functional
Hs-578T = assay: Anticancer activity against human Hs-578T cells assessed as lethality incubated for 48 hrs by SRB assay; type: functional; conditions: read-out: LC50 (the source's name)
HOP-62 = assay: Anticancer activity against human HOP-62 cells assessed as lethality incubated for 48 hrs by SRB assay; type: functional; conditions: read-out: LC50 (the source's name)
TK-10 [7] = assay: Anticancer activity against human TK-10 cells assessed as growth inhibition incubated for 48 hrs by SRB assay; type: functional
NCI-H322M [8] = assay: Anticancer activity against human NCI-H322M cells assessed as lethality incubated for 48 hrs by SRB assay; type: functional; conditions: read-out: LC50 (the source's name)
MOLT-4 = assay: Anticancer activity against human MOLT-4 cells assessed as lethality incubated for 48 hrs by SRB assay; type: functional; conditions: read-out: LC50 (the source's name)
SW-620 = assay: Anticancer activity against human SW-620 cells assessed as growth inhibition incubated for 48 hrs by SRB assay; type: functional
SK-OV-3 [9] = assay: Anticancer activity against human SK-OV-3 cells assessed as cell growth inhibition incubated for 72 hrs by MTT assay; type: functional
OVCAR-3 = assay: Anticancer activity against human OVCAR-3 cells assessed as growth inhibition incubated for 48 hrs by SRB assay; type: functional
UACC-257 = assay: Anticancer activity against human UACC-257 cells assessed as total growth inhibition incubated for 48 hrs by SRB assay; type: functional
DU-145 [10] = assay: Anticancer activity against human DU-145 cells assessed as lethality incubated for 48 hrs by SRB assay; type: functional; conditions: read-out: LC50 (the source's name)
Malme-3M = assay: Anticancer activity against human Malme-3M cells assessed as total growth inhibition incubated for 48 hrs by SRB assay; type: functional
Salmon testes DNA = assay: Displacement of methyl green from salmon sperm DNA at 10 uM measured after 2 hrs by fluorescence plate reader method relative to control; type: nucleic-acid assay; conditions: Salmo salar
HCC 2998 [11] = assay: Anticancer activity against human HCC 2998 cells assessed as inhibition of cell growth at 10 uM incubated for 48 hrs by SRB assay; type: functional; conditions: HCC 2998, 48 h, values are per cent of control
COLO 205 = assay: Anticancer activity against human COLO 205 cells assessed as lethality incubated for 48 hrs by SRB assay; type: functional; conditions: read-out: LC50 (the source's name)
HT-29 = assay: Anticancer activity against human HT-29 cells assessed as growth inhibition incubated for 48 hrs by SRB assay; type: functional
[12] = Cytotoxicity against mitogen activated human peripheral blood lymphocytes assessed as cell growth inhibition incubated for 24 hrs by MTT assay; type: toxicity, cell-based, Lymphocyte
K562 [13] = assay: Anticancer activity against human K562 cells assessed as total growth inhibition incubated for 48 hrs by SRB assay; type: functional
EKVX = assay: Anticancer activity against human EKVX cells assessed as growth inhibition incubated for 48 hrs by SRB assay; type: functional
SNB-19 = assay: Anticancer activity against human SNB-19 cells assessed as growth inhibition incubated for 48 hrs by SRB assay; type: functional
A549 = assay: Anticancer activity against human A549 cells assessed as total growth inhibition incubated for 48 hrs by SRB assay; type: functional
NCI-H460 [14] = assay: Anticancer activity against human NCI-H460 cells assessed as total growth inhibition incubated for 48 hrs by SRB assay; type: functional
SN12C = assay: Anticancer activity against human SN12C cells assessed as growth inhibition incubated for 48 hrs by SRB assay; type: functional
[15] = Selectivity index, ratio of GI50 for human HaCaT cells to GI50 for human MCF7 cells; type: toxicity; conditions: HaCaT cells versus MCF7 cells, read-out: RatioGI50
K562 [16] = assay: Anticancer activity against human K562 cells assessed as lethality incubated for 48 hrs by SRB assay; type: functional; conditions: read-out: LC50 (the source's name)
CCRF-CEM = assay: Anticancer activity against human CCRF-CEM cells assessed as lethality incubated for 48 hrs by SRB assay; type: functional; conditions: read-out: LC50 (the source's name)
SK-OV-3 [17] = assay: Anticancer activity against human SK-OV-3 cells assessed as lethality incubated for 48 hrs by SRB assay; type: functional; conditions: read-out: LC50 (the source's name)
Jurkat = assay: Induction of morphological changes in human Jurkat cells assessed as change in cell shape incubated for 24 hrs by Hoechst 33258 and propidium iodide staining based fluorescence microscopy; type: functional
HCC 2998 [18] = assay: Anticancer activity against human HCC 2998 cells assessed as total growth inhibition incubated for 48 hrs by SRB assay; type: functional
NCI-H322M [19] = assay: Anticancer activity against human NCI-H322M cells assessed as total growth inhibition incubated for 48 hrs by SRB assay; type: functional
IGROV-1 = assay: Anticancer activity against human IGROV-1 cells assessed as lethality incubated for 48 hrs by SRB assay; type: functional; conditions: read-out: LC50 (the source's name)
T47D [20] = assay: Anticancer activity against human T47D cells assessed as lethality incubated for 48 hrs by SRB assay; type: functional; conditions: read-out: LC50 (the source's name)
MCF7 = assay: Anticancer activity against human MCF7 cells assessed as cell growth inhibition incubated for 72 hrs by MTT assay; type: functional
SK-MEL-2 = assay: Anticancer activity against human SK-MEL-2 cells assessed as lethality incubated for 48 hrs by SRB assay; type: functional; conditions: read-out: LC50 (the source's name)
SR = assay: Anticancer activity against human SR cells assessed as lethality incubated for 48 hrs by SRB assay; type: functional; conditions: read-out: LC50 (the source's name)
HCT-15 = assay: Anticancer activity against human HCT-15 cells assessed as growth inhibition incubated for 48 hrs by SRB assay; type: functional

O=C1CC(N2C(=O)/C(=C/C(Cl)=C/c3ccc([N+](=O)[O-])cc3)SC2=S)C(=O)N1c1ccc(Cl)cc1 (centres undefined)
CC50 (HL-60): > 100 µM | GI50 (T47D [1]): 2.03 µM | GI50 (DU-145 [2]): 2.09 µM | GI50 [3]: 6 µM | growth, % of control at 10 µM (UO-31): -42.9% | selectivity ratio [4]: 10.9 | GI50 (RXF 393): 1.26 µM | CC50 (MDA-MB-435): 6.98 µM | TGI (CAKI-1): 3.28 µM | CC50 (SK-MEL-28): 9.41 µM | CC50 (NCI-H460 [5]): > 100 µM | TGI (TK-10 [6]): 8.63 µM | GI50 (HCT-116): 1.35 µM | GI50 (786-0): 1.63 µM | CC50 (Hs-578T): > 100 µM | CC50 (HOP-62): > 100 µM | GI50 (TK-10 [7]): 2.79 µM | CC50 (NCI-H322M [8]): > 100 µM | CC50 (MOLT-4): 62.6 µM | GI50 (SW-620): 0.508 µM | GI50 (SK-OV-3 [9]): 65.9 µM | GI50 (OVCAR-3): 0.721 µM | TGI (UACC-257): 66.5 µM | CC50 (DU-145 [10]): > 100 µM | TGI (Malme-3M): 11.6 µM | Activity (Salmon testes DNA): 7.9% | growth, % of control at 10 µM (HCC 2998 [11]): -22.9% | CC50 (COLO 205): > 100 µM | GI50 (HT-29): 0.632 µM | GI50 at 24 h [12]: 36.8 µM | TGI (K562 [13]): 11.6 µM | GI50 (EKVX): 3.11 µM | GI50 (SNB-19): 1.17 µM | TGI (A549): > 100 µM | TGI (NCI-H460 [14]): > 100 µM | GI50 (SN12C): 1.69 µM | selectivity ratio [15]: 12.6 | CC50 (K562 [16]): 54.9 µM | CC50 (CCRF-CEM): > 100 µM | CC50 (SK-OV-3 [17]): > 100 µM | Activity (Jurkat): Active | TGI (HCC 2998 [18]): 3.03 µM | TGI (NCI-H322M [19]): > 100 µM | CC50 (IGROV-1): 49.6 µM | CC50 (T47D [20]): > 100 µM | GI50 (MCF7): 7.95 µM | CC50 (SK-MEL-2): > 100 µM | CC50 (SR): 57.6 µM | GI50 (HCT-15): 0.599 µM
